Assay results from US20240041042A1, “1-(PYRIDYL)-5-AZINYLPYRAZOLE DERIVATIVES, AND THEIR USE FOR CONTROL OF UNDESIRED PLANT GROWTH” (Bayer Aktiengesellschaft, priority 2020, published 2024).
Like-named read-outs stand apart in the source and are kept apart here.

Assays:
Assay type in all cases: in vivo
[1] = test system: Echinochloa crus-galli (ECHCG); assay: Post-emergence herbicidal action against ECHCG
How it was run: (§1)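 Doses of 320 g/ha or lower, suffixes a, b and c marking different dosages, were applied post-emergence at the one-leaf stage in 600 l/ha water with 0.5% additive. Damage was assessed visually after about 3 weeks in the greenhouse.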

[2] = test system: Setaria viridis (SETVI); assay: Pre-emergence herbicidal action against SETVI; settings: dosage 320 g/ha
How it was run: (§2)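 Seeds sown in pots and covered with soil; WP or EC formulations sprayed onto the soil surface at 600 l/ha water with 0.5% additive, at 320 g/ha or lower. Greenhouse growth for about 3 weeks, then visual scoring as % effect against untreated controls (100% = plants dead).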

[3] = test system: Verconica persica (VERPE); assay: Post-emergence herbicidal action against VERPE
How it was run: as §1

[4] = test system: Setaria viridis (SETVI); assay: Post-emergence herbicidal action against SETVI; settings: dosage 320 g/ha
How it was run: as §1

[5] = test system: Brassica napus (BRSNW); settings: 80 g/ha, crop plant compatibility, in comparison to untreated controls
How it was run: (§3)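 Crop injury rated visually in percent against untreated plants roughly 3 weeks after treatment (0% no effect, 100% plants dead). Compounds, as WP or EC with 0.5% additive in 600 l/ha water, were applied to the covering soil right after sowing; greenhouse growth. Suffixes a, b, c denote different dosages.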

[6] = test system: Zea mays (ZEAMX); settings: pre-emergence, crop plant compatibility, in comparison to untreated controls
How it was run: as §3

[7] = test system: Matricaria inodora (MATIN); assay: Pre-emergence herbicidal action against MATIN
How it was run: as §2

[8] = test system: Alopecurus myosuroides (ALOMY); assay: Pre-emergence herbicidal action against ALOMY; settings: scored visually after about 3 weeks, 100% = plants have died
How it was run: as §2

[9] = test system: Amaranthus retroflexus (AMARE); assay: Post-emergence herbicidal action against AMARE
How it was run: as §1

[10] = test system: Pharbitis purpurea (PHBPU); assay: Post-emergence herbicidal action against PHBPU; settings: dosage 320 g/ha
How it was run: as §1

[11] = test system: Polygonum convolvulus (POLCO); assay: Post-emergence herbicidal action against POLCO; settings: dosage 320 g/ha
How it was run: as §1

[12] = test system: Oryza sativa (ORYSA); settings: crop plant compatibility
How it was run: (§4)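 Effects were read visually as % versus untreated controls (0% = no effect, 100% = death) about 3 weeks post-treatment. Application was a post-emergence spray at the one-leaf stage of WP/EC formulations with 0.5% additive at 600 l/ha. Different dosages are denoted a, b and c.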

[13] = test system: Triticum aestivum (TRZAS); settings: crop plant compatibility, effect vs untreated controls
How it was run: as §4

[14] = test system: Zea mays (ZEAMX); settings: for Post-emergence action against ZEAMX in %: crop plant compatibility, 80 g/ha, effect vs untreated controls
How it was run: as §4

[15] = test system: Verconica persica (VERPE); assay: Pre-emergence herbicidal action against VERPE; settings: dosage 320 g/ha
How it was run: as §2

[16] = test system: Amaranthus retroflexus (AMARE); assay: Pre-emergence herbicidal action against AMARE; settings: visual scoring after about 3 weeks vs untreated controls
How it was run: as §2

[17] = test system: Polygonum convolvulus (POLCO); assay: Pre-emergence herbicidal action against POLCO
How it was run: as §2

[18] = test system: Avena fatua (AVEFA); assay: Pre-emergence herbicidal action against AVEFA; settings: visual scoring after about 3 weeks vs untreated controls
How it was run: as §2

[19] = test system: Avena fatua (AVEFA); assay: Post-emergence herbicidal action against AVEFA; settings: 80 g/ha, visual rating about 3 weeks after treatment
How it was run: as §1

[20] = test system: Echinochloa crus-galli (ECHCG); assay: Pre-emergence herbicidal action against ECHCG; settings: dosage 320 g/ha
How it was run: as §2

[21] = test system: Lolium rigidum (LOLRI); assay: Pre-emergence herbicidal action against LOLRI; settings: dosage 320 g/ha
How it was run: as §2

[22] = test system: Lolium rigidum (LOLRI); assay: Post-emergence herbicidal action against LOLRI
How it was run: as §1

[23] = test system: Alopecurus myosuroides (ALOMY); assay: Post-emergence herbicidal action against ALOMY; settings: 80 g/ha, visual rating about 3 weeks after treatment vs untreated controls (100% = plants have died, 0% = like control plants)
How it was run: as §1

[24] = test system: Viola tricolor (VIOTR); assay: Pre-emergence herbicidal action against VIOTR
How it was run: as §2

[25] = test system: Abutilon theophrasti (ABUTH); assay: Post-emergence herbicidal action against ABUTH; settings: 320 g/ha, visual rating about 3 weeks after treatment vs untreated controls (100% = plants have died, 0% = like control plants)
How it was run: as §1

[26] = test system: Oryza sativa (ORYSA); settings: pre-emergence, 80 g/ha, crop plant compatibility, in comparison to untreated controls
How it was run: as §3

[27] = 80 g/ha, visual rating about 3 weeks after treatment vs untreated controls (100% = plants have died, 0% = like control plants)
[28] = 320 g/ha, visual rating about 3 weeks after treatment
[29] = 80 g/ha, effect in comparison to untreated controls

Row | Pre-emergence action against BRSNW in % [5] [%] | Pre-emergence action against ZEAMX in % ([6]; 80 g/ha) [%] | Post-emergence action against ORYSA in % [12, 29] [%] | Post-emergence action against TRZAS in % ([13]; 80 g/ha) [%] | Post-emergence action against ZEAMX in % [14] [%] | Compound | Post-emergence action against ECHCG in % ([1]; dosage 320 g/ha) [%] | Pre-emergence action against SETVI in % [2] [%] | Post-emergence action against VERPE in % ([3]; 320 g/ha, VERPE) [%] | Post-emergence action against SETVI in % [4] [%] | Pre-emergence action against MATIN in % ([7]; dosage 320 g/ha) [%] | Pre-emergence action against ALOMY ([8]; 320 g/ha) [%] | Post-emergence action against AMARE in % [9, 27] [%] | Post-emergence action against AMARE in % [9, 28] [%] | Post-emergence action against PHBPU in % [10] [%] | Post-emergence action against POLCO in % [11] [%] | Pre-emergence action against VERPE in % [15] [%] | Pre-emergence action against AMARE in % ([16]; 80 g/ha) [%] | Pre-emergence action against AMARE in % ([16]; 320 g/ha) [%] | Pre-emergence action against POLCO in % ([17]; dosage 80 g/ha) [%] | Pre-emergence action against POLCO in % ([17]; dosage 320 g/ha) [%] | also measured
1 | 0 | 0 | 0 | 0 | 0 | COC(=O)CNC(=O)COc1nn(-c2ccccn2)c(-c2ccc(F)nc2)c1F [Example I-377] | 90 | 90 | 80 | 90 | 90 | 80 | 80 | 90 | 90 | 80 | 80 | 80 | 90 | – | – | Post-emergence action against ECHCG in % ([1]; dosage 80 g/ha): 80%; Pre-emergence action against ZEAMX in % ([6]; 320 g/ha): 0%; Pre-emergence action against MATIN in % ([7]; dosage 80 g/ha): 80%
2 | 10 | 10 | 10 | – | 20 | C[C@@H](Oc1nn(-c2ncccc2Cl)c(-c2ccc(F)nc2)c1Br)C(=O)O [Example I-25] | – | 100 | – | – | 90 | 90 | – | – | – | – | 90 | 90 | 100 | 80 | 90 | Pre-emergence action against AVEFA in % ([18]; 80 g/ha): 90%; Pre-emergence action against AVEFA in % ([18]; 320 g/ha): 100%; Post-emergence action against AVEFA in % [19]: 90%; Post-emergence action against VERPE in % ([3]; dosage 80 g/ha): 80%; Pre-emergence action against ECHCG in % [20]: 90%; Pre-emergence action against LOLRI in % [21]: 100%; Post-emergence action against LOLRI in % ([22]; dosage 80 g/ha): 80%; Pre-emergence action against ALOMY ([8]; 80 g/ha): 80%; Post-emergence action against ALOMY in % [23]: 90%; Pre-emergence action against VIOTR in % ([24]; 320 g/ha, Viola tricolor): 100%; Pre-emergence action against VIOTR in % ([24]; dosage 80 g/ha): 100%; Post-emergence action against ORYSA in % ([12]; 20 g/ha, effect vs untreated controls): 0%; Post-emergence action against ZEAMX in % (crop plant compatibility) ([14]; 20 g/ha, ZEAMX, effect in comparison to untreated controls): 10%
3 | 0 | 0 | 10 | – | 10 | COCCOC(=O)COc1nn(-c2ncccc2C(F)(F)F)c(-c2ccc(F)nc2)c1Br [Example I-378] | 80 | – | 80 | 80 | – | 80 | – | – | – | – | – | 80 | 90 | – | 80 | Post-emergence action against ABUTH in % [25]: 80%; Pre-emergence action against LOLRI in % [21]: 90%; Pre-emergence action against ORYSA in % [26]: 0%; Pre-emergence action against VIOTR in % ([24]; 320 g/ha, Viola tricolor): 90%
4 | 20 | – | 0 | 0 | 10 | Cc1cccc(-n2nc(OCC(=O)O)c(Cl)c2-c2ccc(F)nc2)n1 [Example I-351] | 80 | 100 | 80 | 80 | 80 | – | 80 | 80 | 80 | 80 | 80 | – | 80 | 80 | 80 | Pre-emergence action against AVEFA in % ([18]; 320 g/ha): 80%; Pre-emergence action against ECHCG in % [20]: 90%; Pre-emergence action against ORYSA in % [26]: 20%; Post-emergence action against LOLRI in % ([22]; dosage 320 g/ha): 80%; Post-emergence action against TRZAS in % ([13]; 320 g/ha): 10%
